Assay results as given in ChEMBL document CHEMBL1275304, “Use of phosphonyl carbanions in the synthesis of anti-inflammatory active phosphorus-containing fused heterocycles and relevance phosphonates” (Eur J Med Chem, 2010).

Legend:
[1] = test system: Rattus norvegicus; assay: Antiinflammatory activity against carrageenan-induced fisher 344 rat paw edema model assessed as reduction of paw volume at 50 mg/kg, ip after 3.5 hrs by plethysmometer; assay type: functional; settings: fisher 344, ip, route intraperitoneal
[2] = Acute toxicity in ip dosed albino mouse after 24 hrs; assay type: organism-based; settings: in vivo
[3] = test system: Rattus norvegicus; assay: Antiinflammatory activity against carrageenan-induced fisher 344 rat paw edema model assessed as inhibition of granuloma; assay type: functional, organism-based
[4] = test system: Mus musculus; assay: Toxicity in albino mouse assessed as mortality at 500 to 1000 mg/kg, ip after 24 hrs; assay type: organism-based; design: dose 500-1000 mg/kg, route intraperitoneal; settings: in vivo
[5] = test system: Mus musculus; assay: Toxicity in albino mouse assessed as toxic symptom at 500 to 1000 mg/kg, ip after 24 hrs; assay type: organism-based; design: dose 500-1000 mg/kg, route intraperitoneal; settings: in vivo
[6] = test system: Rattus norvegicus; assay: Antiinflammatory activity against carrageenan-induced fisher 344 rat paw edema model assessed as inhibition of granuloma at 100 mg/kg; assay type: functional

| Structure (SMILES) | inhibition in vivo at 50 mg/kg [1] | LD50 at 24 h [2] | Activity [3] | Activity [4] | Activity [5] | inhibition in vivo at 100 mg/kg [6] |
| --- | --- | --- | --- | --- | --- | --- |
| CCOC(=O)C1=c2cc(C(C(=O)OCC)P(=O)(OCC)OCC)sc2=C(C)OP1(=O)OCC (stereo not drawn) | 76.1% | > 300 µmol/kg | Dose-dependent effect | Non-toxic | Non-toxic | – |
| CCOP1(=O)OC(C)=c2sc(Br)cc2=C1C#N (stereo not drawn) | 62.8% | > 300 µmol/kg | – | – | – | 62.8% |
| CCOP1(=O)OC2(C)C(=O)C=CC2(C)C1C(=O)OC (stereo not drawn) | 63.2% | > 300 µmol/kg | – | – | – | 63.2% |
| COc1ccc2c(c1)c(CC(=O)O)c(C)n2C(=O)c1ccc(Cl)cc1 [INDOMETHACIN] | 68.4% | > 300 µmol/kg | – | – | – | – |
| CCOC(=O)C1C2(C)C=CC(=O)C2(C)OP1(=O)OCC (stereo not drawn) | 59.7% | > 300 µmol/kg | – | – | – | 59.7% |
| CCOC(=O)C1=c2cc(Br)sc2=C(C)OP1(=O)OCC (stereo not drawn) | 60.4% | > 300 µmol/kg | – | – | – | 60.4% |
| CCOP1(=O)OC(C)=c2sc(Br)cc2=C1C(=O)OC (stereo not drawn) | 68.1% | > 300 µmol/kg | – | – | – | 68.1% |
| CCOP1(=O)OC(C)=c2sc(C(C(=O)OC)P(=O)(OCC)OCC)cc2=C1C(=O)OC (stereo not drawn) | 75.9% | > 300 µmol/kg | Dose-dependent effect | Non-toxic | Non-toxic | – |
| CCOP(=O)(/C=C\c1cc2c(s1)=C(C)OP(=O)(OCC)C=2C)OCC (stereo not drawn) | 87.6% | > 300 µmol/kg | – | Non-toxic | Non-toxic | – |
| CCOP1(=O)OC2(C)C(=O)C=CC2(C)C1C#N (stereo not drawn) | 66.6% | > 300 µmol/kg | – | – | – | 66.6% |
| CCOP1(=O)OC(C)=c2sc(C(C#N)P(=O)(OCC)OCC)cc2=C1C#N (stereo not drawn) | 81.1% | > 300 µmol/kg | – | Non-toxic | Non-toxic | – |
